# Experimental data as given in patent US9062124B2, “GIP-based mixed agonists for treatment of metabolic disorders and obesity” (priority 2008, dated 2015).
# pEC50: −log10 of the molar value. Like-named read-outs stand apart in the source and are kept apart here. Where a SMILES comes first, the peptide text is derived from it. Bridges are numbered along the chain shown (N, C = ends). [ ]: non-standard residue; d: D form. The star is where a group is joined. Palmitoyl = CCCCCCCCCCCCCCCC(=O)*; Aib = CC(C)(N)C(=O)O
# Columns and labels:
# Type in all cases: cell-based
# glucagon receptor = target: T1, glucagon receptor (Homo sapiens, UniProt P47871); assay: cAMP synthesis functional assay (firefly luciferase reporter in HEK293 cells), glucagon receptor
# T1 construct: expressed in transfected cells; host or cells: HEK293
# GLP-1 receptor = target: T2, GLP-1 receptor (Homo sapiens, UniProt P43220); assay: cAMP synthesis functional assay (firefly luciferase reporter in HEK293 cells), GLP-1 receptor; details: for pEC50: GLP-1 Receptor EC50, cAMP luciferase reporter assay as in Example 16
# T2 construct: expressed in transfected cells; host or cells: HEK293
# GIP receptor = target: T3, GIP receptor (Homo sapiens, UniProt P48546); assay: cAMP synthesis functional assay (firefly luciferase reporter in HEK293 cells), GIP receptor
# T3 construct: expressed in transfected cells; host or cells: HEK293
# T3 sequence (P48546 22-466): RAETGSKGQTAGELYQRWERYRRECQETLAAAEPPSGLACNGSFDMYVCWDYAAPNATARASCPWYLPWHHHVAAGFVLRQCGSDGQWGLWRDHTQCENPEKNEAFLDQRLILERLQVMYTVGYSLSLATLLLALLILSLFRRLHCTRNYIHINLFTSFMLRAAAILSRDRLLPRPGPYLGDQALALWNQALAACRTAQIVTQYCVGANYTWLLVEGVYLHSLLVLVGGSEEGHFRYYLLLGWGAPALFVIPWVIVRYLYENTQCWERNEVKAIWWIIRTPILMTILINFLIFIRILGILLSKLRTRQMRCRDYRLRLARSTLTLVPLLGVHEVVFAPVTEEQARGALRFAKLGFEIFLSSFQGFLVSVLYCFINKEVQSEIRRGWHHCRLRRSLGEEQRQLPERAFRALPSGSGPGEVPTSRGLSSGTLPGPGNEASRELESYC
# [1] = Table 1, relative to the native hormone of the indicated receptor
# [2] = relative to the standard (Std.) EC50 of the same run
# [3] = Table 4, relative to the native hormone
# T2 sequence (P43220 24-463, species assumed): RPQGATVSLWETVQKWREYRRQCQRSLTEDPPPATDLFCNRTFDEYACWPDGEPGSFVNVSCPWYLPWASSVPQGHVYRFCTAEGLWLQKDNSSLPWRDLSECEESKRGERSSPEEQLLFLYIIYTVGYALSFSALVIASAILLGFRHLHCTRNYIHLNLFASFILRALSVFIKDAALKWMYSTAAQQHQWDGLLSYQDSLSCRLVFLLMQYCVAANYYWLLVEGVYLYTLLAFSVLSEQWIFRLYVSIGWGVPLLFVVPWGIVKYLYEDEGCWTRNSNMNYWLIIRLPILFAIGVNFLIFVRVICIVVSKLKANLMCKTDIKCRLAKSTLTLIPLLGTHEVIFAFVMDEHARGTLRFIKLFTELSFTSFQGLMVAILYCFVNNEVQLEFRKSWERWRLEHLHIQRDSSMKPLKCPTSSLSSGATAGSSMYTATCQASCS
# T1 sequence (P47871 26-477): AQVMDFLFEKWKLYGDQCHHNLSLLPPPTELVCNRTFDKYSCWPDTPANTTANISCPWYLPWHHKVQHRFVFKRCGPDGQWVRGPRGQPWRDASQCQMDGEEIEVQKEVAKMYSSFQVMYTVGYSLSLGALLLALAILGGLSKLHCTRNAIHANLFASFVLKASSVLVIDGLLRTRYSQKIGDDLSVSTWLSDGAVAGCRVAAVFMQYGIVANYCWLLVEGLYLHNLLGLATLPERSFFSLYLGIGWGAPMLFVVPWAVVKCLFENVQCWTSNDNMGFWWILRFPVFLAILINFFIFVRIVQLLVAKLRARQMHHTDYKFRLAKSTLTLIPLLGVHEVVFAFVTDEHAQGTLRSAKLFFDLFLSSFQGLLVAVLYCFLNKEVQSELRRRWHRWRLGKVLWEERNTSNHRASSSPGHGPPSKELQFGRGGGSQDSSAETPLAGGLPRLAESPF
Compound,Glucagon Receptor relative activity (glucagon receptor; [1]) [%],GLP-1 Receptor relative activity (GLP-1 receptor; [1]) [%],GIP Receptor relative activity (GIP receptor; [1]) [%],Glucagon Receptor relative activity (glucagon receptor; [2]) [%],pEC50 (GLP-1 receptor),GLP-1 Receptor relative activity (GLP-1 receptor; [2]) [%],GIP Receptor relative activity (GIP receptor; [2]) [%],other results
CC[C@H](C)[C@H](NC(=O)[C@H](CO)NC(=O)[C@H](Cc1ccc(O)cc1)NC(=O)[C@H](CC(=O)O)NC(=O)[C@H](CO)NC(=O)[C@@H](NC(=O)[C@H](Cc1ccccc1)NC(=O)[C@@H](NC(=O)CNC(=O)[C@H](CCC(=O)O)NC(=O)[C@H](C)NC(=O)[C@@H](N)Cc1ccc(O)cc1)[C@@H](C)O)[C@@H](C)CC)C(=O)N[C@@H](C)C(=O)N[C@@H](CCSC)C(=O)N[C@@H](CC(=O)O)C(=O)N[C@H]1CCC(=O)NCCCC[C@@H](C(=O)N[C@@H](CC(=O)O)C(=O)N[C@@H](Cc2ccccc2)C(=O)N[C@H](C(=O)N[C@@H](CC(N)=O)C(=O)N[C@@H](Cc2c[nH]c3ccccc23)C(=O)N[C@@H](CC(C)C)C(=O)N[C@@H](CC(C)C)C(=O)N[C@@H](C)C(=O)N[C@@H](CCC(N)=O)C(N)=O)C(C)C)NC(=O)[C@H](CCC(N)=O)NC(=O)[C@H](Cc2c[nH]cn2)NC(=O)[C@H]([C@@H](C)CC)NC1=O [mt-96] (H-YAEGTFISDYSIAMDEIHQKDFVNWLLAQ-NH2; lactam 16-20; N-terminus assumed),0.29,0.04,84.48,–,–,–,–,–
CC[C@H](C)[C@H](NC(=O)[C@H](CO)NC(=O)[C@H](Cc1ccc(O)cc1)NC(=O)[C@H](CC(=O)O)NC(=O)[C@H](CO)NC(=O)[C@@H](NC(=O)[C@H](Cc1ccccc1)NC(=O)[C@@H](NC(=O)CNC(=O)[C@H](CCC(=O)O)NC(=O)C(C)(C)NC(=O)[C@@H](N)Cc1ccc(O)cc1)[C@@H](C)O)[C@@H](C)O)C(=O)N[C@@H](Cc1ccc(O)cc1)C(=O)N[C@@H](CC(C)C)C(=O)N[C@@H](CC(=O)O)C(=O)N[C@@H](CCCCN)C(=O)N[C@@H](CCC(N)=O)C(=O)N[C@@H](C)C(=O)N[C@@H](C)C(=O)NC(C)(C)C(=O)N[C@@H](CCC(=O)O)C(=O)N[C@@H](Cc1ccccc1)C(=O)N[C@H](C(=O)N[C@@H](CC(N)=O)C(=O)N[C@@H](Cc1c[nH]c2ccccc12)C(=O)N[C@@H](CC(C)C)C(=O)N[C@@H](CC(C)C)C(=O)N[C@@H](C)C(=O)NCC(=O)NCC(=O)N1CCC[C@H]1C(=O)N[C@@H](CO)C(=O)N[C@@H](CO)C(=O)NCC(=O)N[C@@H](C)C(=O)N1CCC[C@H]1C(=O)N1CCC[C@H]1C(=O)N1CCC[C@H]1C(=O)N[C@@H](CO)C(=O)N[C@@H](CS)C(N)=O)C(C)C [mt-256],–,–,–,0.12,10.91,95.97,282.35,"pEC50 (GIP receptor; GIP Receptor EC50, cAMP luciferase reporter assay as in Example 16): 11.47"
CC[C@H](C)[C@H](NC(=O)[C@H](Cc1ccccc1)NC(=O)[C@H](CCC(=O)O)NC(=O)[C@@H]1CCCCNC(=O)CC[C@H](NC(=O)[C@H](CC(=O)O)NC(=O)[C@H](CC(C)C)NC(=O)[C@H](Cc2ccc(O)cc2)NC(=O)[C@H](CCCCN)NC(=O)[C@H](CO)NC(=O)[C@H](Cc2ccc(O)cc2)NC(=O)[C@H](CC(=O)O)NC(=O)[C@H](CO)NC(=O)[C@@H](NC(=O)[C@H](Cc2ccccc2)NC(=O)[C@@H](NC(=O)CNC(=O)[C@H](CCC(N)=O)NC(=O)[C@H](CO)NC(=O)[C@@H](N)Cc2ccc(O)cc2)[C@@H](C)O)[C@@H](C)O)C(=O)N[C@@H](CCC(N)=O)C(=O)N[C@@H](C)C(=O)N[C@@H](C)C(=O)N1)C(=O)N[C@@H](C)C(=O)N[C@@H](Cc1c[nH]c2ccccc12)C(=O)N[C@@H](CC(C)C)C(=O)N[C@@H](CC(C)C)C(=O)N[C@@H](C)C(=O)NCC(=O)NCC(=O)N1CCC[C@H]1C(=O)N[C@@H](CO)C(=O)N[C@@H](CO)C(=O)NCC(=O)N[C@@H](C)C(=O)N1CCC[C@H]1C(=O)N1CCC[C@H]1C(=O)N1CCC[C@H]1C(=O)N[C@@H](CO)C(N)=O [mt-139] (H-YSQGTFTSDYSKYLDEQAAKEFIAWLLAGGPSSGAPPPS-NH2; lactam 16-20; N-terminus assumed),561.11,41.46,12.22,–,–,–,–,–
"mt-377: acylated PEG-linked dimer, acylation at position 40 of each monomer (YXEGTFTSDYSIYLDKQAAXEFVNWLLAGGPSSGAPPPSKC; PEG-linked dimer, acylated at position 40; Mt-377; homodimer; Xaa is Aib; 14 Carbon fatty acyl group covalently bound to Lysine; PEG (5kDa) covalently bound to Cysteine; C-terminal amidation; Cys residue covalently attached to 5 kDa PEG which is in turn covalently attached to a Cys residue of a second peptide having the same structure)",–,–,–,–,–,–,–,"Glucagon Receptor relative activity (glucagon receptor; [3]): 1.98%; pEC50 (glucagon receptor; read-out: Glucagon Receptor EC50, Table 4): 8.41; GLP-1 Receptor relative activity (GLP-1 receptor; [3]): 177.88%; GIP Receptor relative activity (GIP receptor; [3]): 138.11%"
CCCCCCCCCCCCCCCC(=O)NCCCC[C@H](NC(=O)[C@H](CC(=O)O)NC(=O)[C@H](CO)NC(=O)[C@@H](NC(=O)[C@H](Cc1ccccc1)NC(=O)[C@@H](NC(=O)CNC(=O)[C@H](CCC(=O)O)NC(=O)C(C)(C)NC(=O)[C@@H](N)Cc1ccc(O)cc1)[C@@H](C)O)[C@@H](C)O)C(=O)N[C@@H](CO)C(=O)N[C@H](C(=O)N[C@@H](Cc1ccc(O)cc1)C(=O)N[C@@H](CC(C)C)C(=O)N[C@@H](CC(=O)O)C(=O)N[C@@H](CCCCN)C(=O)N[C@@H](CCC(N)=O)C(=O)N[C@@H](C)C(=O)N[C@@H](C)C(=O)NC(C)(C)C(=O)N[C@@H](CCC(=O)O)C(=O)N[C@@H](Cc1ccccc1)C(=O)N[C@H](C(=O)N[C@@H](CC(N)=O)C(=O)N[C@@H](Cc1c[nH]c2ccccc12)C(=O)N[C@@H](CC(C)C)C(=O)N[C@@H](CC(C)C)C(=O)N[C@@H](C)C(=O)NCC(N)=O)C(C)C)[C@@H](C)CC [mt-283] (H-Y[Aib]EGTFTSDK(Palmitoyl)SIYLDKQAA[Aib]EFVNWLLAG-NH2; N-terminus assumed),–,–,–,0.36,10.80,37.34,83.61,"pEC50 (glucagon receptor; Glucagon Receptor EC50, cAMP luciferase reporter assay as in Example 16): 8.10"
CC[C@H](C)[C@H](NC(=O)[C@H](Cc1ccccc1)NC(=O)[C@H](CCC(=O)O)NC(=O)[C@@H]1CCCCNC(=O)CC[C@H](NC(=O)[C@H](CC(=O)O)NC(=O)[C@H](CC(C)C)NC(=O)[C@H](Cc2ccc(O)cc2)NC(=O)[C@H](CCCCN)NC(=O)[C@H](CO)NC(=O)[C@H](Cc2ccc(O)cc2)NC(=O)[C@H](CC(=O)O)NC(=O)[C@H](CO)NC(=O)[C@@H](NC(=O)[C@H](Cc2ccccc2)NC(=O)[C@@H](NC(=O)CNC(=O)[C@H](CCC(N)=O)NC(=O)[C@H](CO)NC(=O)[C@@H](N)Cc2ccc(O)cc2)[C@@H](C)O)[C@@H](C)O)C(=O)N[C@@H](CCC(N)=O)C(=O)N[C@@H](C)C(=O)N[C@@H](C)C(=O)N1)C(=O)N[C@@H](C)C(=O)N[C@@H](Cc1c[nH]c2ccccc12)C(=O)N[C@@H](CC(C)C)C(=O)N[C@@H](CCSC)C(=O)N[C@@H](CC(N)=O)C(=O)NCC(=O)NCC(=O)N1CCC[C@H]1C(=O)N[C@@H](CO)C(=O)N[C@@H](CO)C(=O)NCC(=O)N[C@@H](C)C(=O)N1CCC[C@H]1C(=O)N1CCC[C@H]1C(=O)N1CCC[C@H]1C(=O)N[C@@H](CO)C(N)=O [mt-120] (H-YSQGTFTSDYSKYLDEQAAKEFIAWLMNGGPSSGAPPPS-NH2; lactam 16-20; N-terminus assumed),259.46,13.45,1.81,–,–,–,–,–
